Experimental data from patent publication US20240148821A1, “PHARMACEUTICAL USE OF CYCLIC PEPTIDE COMPOUND” (CHUGAI SEIYAKU KABUSHIKI KAISHA, priority 2021, published 2024).
Numbered stars: 1 amine (or outer) side, 2 acyl side, 3 side chain; on linkers, the order of the positions; unused ones are H or OH. Bridge positions count the residues as written; N and C are the ends. Square brackets hold non-standard residues; d marks the D form. Peptide text beside a SMILES is read from it. * marks the point of attachment. hPhe(3,5-F2-4-CF3) = N[C@@H](CCc1cc(F)c(C(F)(F)F)c(F)c1)C(=O)O; hPhe(3-Cl-4-CF3) = N[C@@H](CCc1ccc(C(F)(F)F)c(Cl)c1)C(=O)O; hPhe(3-F,4-CF3) = N[C@@H](CCc1ccc(C(F)(F)F)c(F)c1)C(=O)O; NEtPhe(4-Me) = CCN[C@@H](Cc1ccc(C)cc1)C(=O)O; NMePhe(4-Cl) = CN[C@@H](Cc1ccc(Cl)cc1)C(=O)O; X111 = CN([C@@H](CCC1CCOCC1)C(=O)[*:2])[*:1]; NMePhe(4-Me) = CN[C@@H](Cc1ccc(C)cc1)C(=O)O; hPhe(4-Cl) = N[C@@H](CCc1ccc(Cl)cc1)C(=O)O; NMedβ3hAla = C[C@H](CC(=O)[*:2])N(C)[*:1]; X133 = O=C(C[C@H](N[*:1])C(F)(F)F)[*:2]; NMeGly(cPent) = CN[C@H](C(=O)O)C1CCCC1; Pro(4,4-F2) = O=C(O)[C@@H]1CC(F)(F)CN1; NMeCha = CN[C@@H](CC1CCCCC1)C(=O)O; NMeChg = CN[C@H](C(=O)O)C1CCCCC1; NMeI = CC[C@H](C)[C@H](NC)C(=O)O; X68 = COCCOCCN(CC(=O)[*:2])[*:1]; NMeD = CN[C@@H](CC(=O)O)C(=O)O; NMeL = CN[C@@H](CC(C)C)C(=O)O; NMeV = CN[C@H](C(=O)O)C(C)C; d(β3hA) = C[C@@H](N)CC(=O)O; NMeS = CN[C@@H](CO)C(=O)O; Morpholide = C1CN(*)CCO1; NMeA = CN[C@@H](C)C(=O)O; Piperidide = C1CCN(*)CC1; Ac5c = NC1(C(=O)O)CCCC1; Aze = O=C(O)[C@@H]1CCN1; Ac4c = NC1(C(=O)O)CCC1; Aib = CC(C)(N)C(=O)O; Sar = CNCC(=O)O; Propyl = CCC*

These compounds were tested against protein-protein interaction between Kras and SOS1 (biotin-tagged human Kras loaded with GDP, His-tagged human SOS1) (Homo sapiens (Human), UniProt P01116, G12D) (assay: Protein-protein interaction inhibition between Kras and SOS1 (KrasG12D-SOS PPI) using AlphaScreen). Details: AlphaScreen; biotin-tagged human Kras loaded with GDP, His-tagged human SOS1; read-out: KRAS G12D-SOS PPI IC50.
Type: biochemical

Question: With `CC[C@H](C)[C@@H]1NC(=O)[C@H](CC(C)C)N(C)C(=O)C[C@@H](C(=O)N2CCCCC2)N(C)C(=O)[C@H](C2CCCCC2)N(C)C(=O)C2(CCCC2)NC(=O)CN(CCOCCOC)C(=O)[C@H](CCc2ccc(C(F)(F)F)c(Cl)c2)NC(=O)CN(C)C(=O)[C@H](CC2CCCCC2)N(C)C(=O)CN(C)C(=O)CN(C)C1=O` [Compound 2025] ([NMeL]I[Sar][Sar][NMeCha][Sar][hPhe(3-Cl-4-CF3)][X68][Ac5c][NMeChg][NMeD]-Piperidide; lactam N-11 (inferred); C-terminus assumed) as the compound, how does the IC50 read?
Answer: The IC50 was 1.4 nM.

Question: For `CC[C@H](C)[C@@H]1NC(=O)[C@H](C)N(C)C(=O)C[C@@H](C)NC(=O)[C@H](CC(C)C)N(C)C(=O)C(C)(C)NC(=O)[C@H](CC(C)C)N(C)C(=O)[C@H](CCc2ccc(Cl)cc2)NC(=O)CN(C)C(=O)[C@H](Cc2ccc(Cl)cc2)N(C)C(=O)CN(C)C(=O)CN(C)C1=O` [Compound 19] (cyclo([Aib][NMeL][d(β3hA)][NMeA]I[Sar][Sar][NMePhe(4-Cl)][Sar][hPhe(4-Cl)][NMeL])), which IC50 is on record?
Answer: Its IC50 is 50 nM.

Question: Which IC50 does the source give for `CC[C@H](C)[C@@H]1NC(=O)[C@H](CC(C)C)N(C)C(=O)C[C@@H](C)N(C)C(=O)[C@H](C2CCCCC2)N(C)C(=O)C2(CCC2)NC(=O)[C@@H]2CC(F)(F)CN2C(=O)[C@H](CCc2cc(F)c(C(F)(F)F)c(F)c2)NC(=O)CN(C)C(=O)[C@H](Cc2ccc(C)cc2)N(CC)C(=O)[C@@H]2CCN2C(=O)[C@H](C)N(C)C1=O` [Compound 475] (cyclo([Ac4c][NMeChg][NMedβ3hAla][NMeL]I[NMeA][Aze][NEtPhe(4-Me)][Sar][hPhe(3,5-F2-4-CF3)][Pro(4,4-F2)])) here?
Answer: Its IC50 is 51 nM.

Question: For `CC[C@H](C)[C@@H]1NC(=O)[C@H](C)N(C)C(=O)C[C@@H](C)NC(=O)[C@H](C2CCCC2)N(C)C(=O)C2(CCCC2)NC(=O)[C@@H]2CCCN2C(=O)[C@H](CCc2ccc(C(F)(F)F)c(Cl)c2)NC(=O)CN(C)C(=O)[C@H](Cc2ccc(C)cc2)N(C)C(=O)[C@@H]2CCN2C(=O)[C@H](C)N(C)C1=O` [Compound 1514] (cyclo([Ac5c][NMeGly(cPent)][d(β3hA)][NMeA]I[NMeA][Aze][NMePhe(4-Me)][Sar][hPhe(3-Cl-4-CF3)]P)), which IC50 is on record?
Answer: Its IC50 is 1 nM.

Question: With `CC[C@H](C)[C@@H]1NC(=O)[C@H](CC(C)C)N(C)C(=O)C[C@@H](C(F)(F)F)NC(=O)[C@H]([C@@H](C)CC)N(C)C(=O)C2(CCCC2)NC(=O)[C@@H]2CCCN2C(=O)[C@H](CCc2ccc(C(F)(F)F)c(Cl)c2)NC(=O)CN(C)C(=O)[C@H](Cc2ccc(C)cc2)N(C)C(=O)[C@@H]2CCN2C(=O)[C@H](C)N(C)C1=O` [Compound 1919] (cyclo([Ac5c][NMeI][X133][NMeL]I[NMeA][Aze][NMePhe(4-Me)][Sar][hPhe(3-Cl-4-CF3)]P)) as the compound, how does the IC50 read?
Answer: The IC50 was 210 nM.

Question: With `CC[C@H](C)[C@@H]1NC(=O)[C@H](CC(C)C)N(C)C(=O)C[C@@H](C(=O)N2CCCCC2)N(C)C(=O)[C@H](C2CCCCC2)N(C)C(=O)C2(CCCC2)NC(=O)[C@H](CCC2CCOCC2)N(C)C(=O)[C@H](CCc2ccc(C(F)(F)F)c(Cl)c2)NC(=O)CN(C)C(=O)[C@H](CC2CCCCC2)N(C)C(=O)CN(C)C(=O)CN(C)C1=O` [Compound 2048, (8S,11S,17S,26S,29S,33S,36S)-11-[2-[3-chloro-4-(trifluoromethyl)phenyl]ethyl]-36-cyclohexyl-17-(cyclohexylmethyl)-29-isobutyl-9,15,18,21,24,30,34,37-octamethyl-26-[(1S)-1-methylpropyl]-33-(piperidine-1-carbonyl)-8-(2-tetrahydropyran-4-ylethyl)-6,9,12,15,18,21,24,27,30,34,37-undecazaspiro[4.33]octatriacontane-7,10,13,16,19,22,25,28,31,35,38-undecone] ([NMeL]I[Sar][Sar][NMeCha][Sar][hPhe(3-Cl-4-CF3)][X111][Ac5c][NMeChg][NMeD]-Piperidide; lactam N-11) as the compound, how does the IC50 read?
Answer: Its IC50 is 3.5 nM.

Question: For `CC[C@H](C)[C@@H]1NC(=O)[C@H](CC(C)C)N(C)C(=O)C[C@@H](C(=O)N(C)C)NC(=O)[C@H]([C@@H](C)CC)N(C)C(=O)C2(CCCC2)NC(=O)[C@@H]2CCCN2C(=O)[C@H](CCc2ccc(C(F)(F)F)c(Cl)c2)NC(=O)CN(C)C(=O)[C@H](CC2CCCCC2)N(C)C(=O)[C@@H]2CCN2C(=O)[C@H](C)N(C)C1=O` [Compound 568] ([NMeL]I[NMeA][Aze][NMeCha][Sar][hPhe(3-Cl-4-CF3)]P[Ac5c][NMeI]D-NMe2; lactam N-11), which IC50 is on record?
Answer: The IC50 was 8 nM.

Question: `CC[C@H](C)[C@@H]1NC(=O)[C@H](C2CCCC2)N(C)C(=O)C[C@@H](C(=O)N2CCCCC2)N(C)C(=O)[C@H](C(C)C)N(C)C(=O)C2(CCCC2)NC(=O)[C@@H]2CCCN2C(=O)[C@H](CCc2ccc(C(F)(F)F)c(Cl)c2)NC(=O)CN(C)C(=O)[C@H](CC2CCCCC2)N(C)C(=O)[C@@H]2CCN2C(=O)[C@H](C)N(C)C1=O` [Compound 225] ([NMeGly(cPent)]I[NMeA][Aze][NMeCha][Sar][hPhe(3-Cl-4-CF3)]P[Ac5c][NMeV][NMeD]-Piperidide; lactam N-11) was tested. Which IC50 did it give?
Answer: Its IC50 is 15 nM.

Question: Which IC50 does the source give for `CCCOC[C@H]1C(=O)N(C)CC(=O)N[C@@H](CCc2ccc(C(F)(F)F)c(F)c2)C(=O)N2CCC[C@H]2C(=O)NC2(CCCC2)C(=O)N(C)[C@@H]([C@@H](C)CC)C(=O)N(C)[C@H](C(=O)N2CCOCC2)CC(=O)N(C)[C@@H](CC(C)C)C(=O)N[C@@H]([C@@H](C)CC)C(=O)N(C)[C@@H](C)C(=O)N2CC[C@H]2C(=O)N1C` [Compound 827] ([NMeL]I[NMeA][Aze][NMeS](Propyl)[Sar][hPhe(3-F,4-CF3)]P[Ac5c][NMeI][NMeD]-Morpholide; lactam N-11) here?
Answer: The IC50 was 2.8 nM.
